Columns and labels:
Assay type in all cases: in vivo, Rattus norvegicus
Sprague-Dawley rats [1] = assay: Open field test for locomotor activity; conditions: for Emax: Rattus norvegicus; for Habituation, distance, CED / Habituation, distance, CED-L / Habituation, time, CED / Habituation, time, CED-L / Percent distance in inner zone, day 24, CED / Percent distance in inner zone, day 24, CED-L / Percent time in inner zone, day 24, CED / Percent time in inner zone, day 24, CED-L: total dose based
Description: During the last 5 days of the study (days 24–28), rats were tested for locomotor activity in an octagonal open field (diameter 75 cm). The behavior was recorded on videotapes and automatically evaluated with a program for behavioral analyses (Ethovision, Noldus, NL). Each rat was tested for 5 min on each of the 5 days to allow the examination of habituation. Sequence of the rats to be tested was varied according to a permutation scheme to exclude a systematic influence of daytime on the outcome. For analyses, the area of the open field was divided in an inner zone (diameter 50 cm) and an outer ring (width 12.5 cm). Total distance moved during the recording period, distance moved in the inner zone of the open field, distance moved in outer zone, time in inner zone, and time in outer zone were extracted as parameters from the recordings.
(§1) Data were also analyzed using the BMD method, which is based on dose-response modeling of the full data set using a nested family of exponential and Hill models. The analyses were done on data of males and females combined, using sex as a covariate. […] In that case, different Critical Effect Doses (CEDs) and CEDs at the lowest bound of the confidence interval (CED-L) were generated for each sex. If no difference between sexes is detected, a CED and CED-Ls for the combined data is generated. However, this was also done if the curve fits are close, and separate analyses for males and females were then performed manually. CEDs and CED-Ls were calculated at the predefined Critical Effect Size (CES) of 5% (EFSA standard) or 10%.

Sprague-Dawley rats [2] = assay: Histopathology; conditions: for Emax: Rattus norvegicus; for Large thyroid follicles (%), CED / Large thyroid follicles (%), CED-L: total dose based; for Adrenal zona fasciculata hypertrophy, CED: semi-quantitative staging; for Pituitary frontal lobe vacuoles or extracellular deposits, incidence: top dose (1700 mg/kg bw)
From the text: After fixation, the samples were dehydrated, paraffinized and embedded according to standard sampling and trimming procedures. Sections of 4 µm were stained with hematoxylin and eosin in an automated way. Microscopic observations were done by initial unblinded comparison of control and top dose samples. […] Slide reading for such affected endpoints was refined by blind and/or semi-quantitative scoring.
For immunohistochemistry of TSH and ACTH in the pituitary routine sections were deparaffinized in a graded series of xylol/ethanol. Endogenous peroxidase activity was blocked in a 1/1 methanol/distilled water solution with 1/100 0.3% H2O2 added. […] Subsequent 60 min incubation with purified rabbit polyclonal IgG against rat TSH (Biogenesis), 1/1600 dilution, or against ACTH (Phoenix Pharmaceuticals), 1/1000 dilution, was followed by incubation with a biotinylated anti-rabbit second antibody in the case of TSH (1/200, 30 min; Vector) and avidin-biotin complex (Vector) according to instructions of the manufacturer; both antisera were diluted in the 1% blocking reagent solution, or with a peroxidase conjugated anti-rabbit second antibody (DAKO) in the case of ACTH. Immunostaining was completed with incubation with a standard diaminobenzidine (Sigma) solution for 5 min and counterstaining with hematoxylin (Mayer procedure). Immunostaining was evaluated by comparing the quantity and staining intensity of positive cells between control and high dose samples.
as §1

[3] = system: Dopamine receptors D1 and D5; assay: Brain [3H]SCH23390 binding in exposed rats; conditions: males
Description: The membrane containing pellet was homogenized in 15 volumes of 50 mM Tris-HCl buffer at pH 7.4, incubated at 25°C for 30 min, and centrifuged again at 100 000 g. The pellet from the second centrifugation was dissolved in 4 ml 0.32 M sucrose/g brain (v/w), with a final protein concentration of […] and frozen at −40°C.
Dopamine receptors D1 and D5 were analyzed as described before, [39]. In brief, 50 µl (0.7 mg protein) of the membrane preparation was incubated with 124–132 µl buffer (50 mM tris-HCL, 120 mM NaCl, 5 mM KCl, 2,5 mM CaCl2 and 1 mM MgCl2, pH 7.4) and 100 nM ketanserine (Tocris Bioscience, Bristol, UK; to block binding of SCH23390 to the 5-HT receptor) to a final volume of 200 µl. For measuring unspecific binding […] SCH23390 was added to the same mixture. Finally, 1 nM [^3H]SCH23390 was added to all samples to measure binding of the receptors or unspecific binding. The samples were incubated for 30 min at 25°C followed by vacuum filtration and scintillation counting.
Samples were vacuum filtrated trough Whatman glassfiber-filters (type GF/B, 25 mm) and washed 3×3 ml ice-cold incubation buffer. To reduce unspecific binding, the filters where pre-wetted in 1% polyetylenimine for 60 min. […] Radioactive binding was measured as disintegration per minute (DPM1) in a scintillation counter (Tri-Carb 3100TR, Perkin Elmer). […]

[4] = F, CES 5%, model E2, adipose tissue concentration based
[5] = F, CES 5%, model E4, adipose tissue concentration based
[6] = F, CES 10%, model E2, adipose tissue concentration based
[7] = F, CES 10%, model E4, adipose tissue concentration based
[8] = females, CES 5%, adipose tissue concentration based
[9] = females, adipose tissue concentration based

In the case of `Clc1cc(Cl)c(-c2cc(Cl)c(Cl)c(Cl)c2Cl)cc1Cl` [PCB 180, 2,2′,3′,4,4′,5,5′-heptachlorobiphenyl], the “CED, Habituation, distance” value (Sprague-Dawley rats [1]; [4]) is reported as 1340 µg/g lipid, the “CED, Habituation, time” value (Sprague-Dawley rats [1]; [4]) is reported as 1130 µg/g lipid and the “CED-L, Habituation, distance” value (Sprague-Dawley rats [1]; [4]) is reported as 865 µg/g lipid. The “CED-L, Habituation, time” value (Sprague-Dawley rats [1]; [4]) was 739 µg/g lipid, the “CED, Percent distance in inner zone, day 24” value (Sprague-Dawley rats [1]; [5]) was 4.12 µg/g lipid and the “CED, Percent time in inner zone, day 24” value (Sprague-Dawley rats [1]; [5]) was 1.55 µg/g lipid. For the same compound, the “CED-L, Percent distance in inner zone, day 24” value (Sprague-Dawley rats [1]; [5]) was 1.16 µg/g lipid, the “CED-L, Percent time in inner zone, day 24” value (Sprague-Dawley rats [1]; [5]) was 0.525 µg/g lipid and the “CED, Habituation, distance” value (Sprague-Dawley rats [1]; [6]) was 2740 µg/g lipid. For the same compound, the “CED, Habituation, time” value (Sprague-Dawley rats [1]; [6]) was 2320 µg/g lipid, the “CED-L, Habituation, distance” value (Sprague-Dawley rats [1]; [6]) was 1777 µg/g lipid and the “CED-L, Habituation, time” value (Sprague-Dawley rats [1]; [6]) was 1518 µg/g lipid. The “CED, Percent distance in inner zone, day 24” value (Sprague-Dawley rats [1]; [7]) was 8.69 µg/g lipid, the “CED, Percent time in inner zone, day 24” value (Sprague-Dawley rats [1]; [7]) was 3.17 µg/g lipid and the “CED-L, Percent distance in inner zone, day 24” value (Sprague-Dawley rats [1]; [7]) was 2.423 µg/g lipid. The “CED-L, Percent time in inner zone, day 24” value (Sprague-Dawley rats [1]; [7]) was 1.07 µg/g lipid, the Emax (Sprague-Dawley rats [1]; 576 h, F, model E4, controls vs high dose according to the fitted model, read-out: Maximum response, Percent distance in inner zone, day 24) was 53% and the Emax (Sprague-Dawley rats [1]; 576 h, F, model E4, controls vs high dose according to the fitted model, read-out: Maximum response, Percent time in inner zone, day 24) was 111%. The Emax (Sprague-Dawley rats [1]; 576 h, females, controls vs high dose, fitted model, read-out: Percent distance in inner zone, day 24, Maximum response) was 53%, the Emax (Sprague-Dawley rats [1]; 576 h, females, controls vs high dose, fitted model, read-out: Percent time in inner zone, day 24, Maximum response) was 107% and the Emax (Sprague-Dawley rats [1]; F, model E2, controls vs high dose according to the fitted model, read-out: Maximum response, Habituation, distance) was -35.2%. It also gave an Emax (Sprague-Dawley rats [1]; F, model E2, controls vs high dose according to the fitted model, read-out: Maximum response, Habituation, time) of -40.1%, an Emax (Sprague-Dawley rats [1]; females, controls vs high dose, fitted model, read-out: Habituation, distance, Maximum response) of -33.2% and an Emax (Sprague-Dawley rats [1]; females, controls vs high dose, fitted model, read-out: Habituation, time, Maximum response) of -37.7%. The “Percentage of distance moved in inner zone, day 24, CED” value (Sprague-Dawley rats [1]; [8]) was 4.12 µg/g lipid, the “Percentage of time in inner zone, day 24, CED” value (Sprague-Dawley rats [1]; [8]) was 1.55 µg/g lipid and the “Habituation, distance, CED” value (Sprague-Dawley rats [1]; females, CES 5%) was 216 mg/kg bw. The “Habituation, distance, CED-L” value (Sprague-Dawley rats [1]; females, CES 5%) was 138 mg/kg bw, the “Habituation, time, CED” value (Sprague-Dawley rats [1]; females, CES 5%) was 184 mg/kg bw and the “Habituation, time, CED-L” value (Sprague-Dawley rats [1]; females, CES 5%) was 118 mg/kg bw. The “Percent distance in inner zone, day 24, CED” value (Sprague-Dawley rats [1]; females, CES 5%) was 0.87 mg/kg bw, the “Percent distance in inner zone, day 24, CED-L” value (Sprague-Dawley rats [1]; females, CES 5%) was 0.25 mg/kg bw and the “Percent time in inner zone, day 24, CED” value (Sprague-Dawley rats [1]; females, CES 5%) was 0.35 mg/kg bw. For the same compound, the “Percent time in inner zone, day 24, CED-L” value (Sprague-Dawley rats [1]; females, CES 5%) was 0.11 mg/kg bw, the “Habituation, distance, CED” value (Sprague-Dawley rats [1]; females, CES 10%) was 444 mg/kg bw and the “Habituation, distance, CED-L” value (Sprague-Dawley rats [1]; females, CES 10%) was 283 mg/kg bw. For the same compound, the “Habituation, time, CED” value (Sprague-Dawley rats [1]; females, CES 10%) was 378 mg/kg bw, the “Habituation, time, CED-L” value (Sprague-Dawley rats [1]; females, CES 10%) was 243 mg/kg bw and the “Percent distance in inner zone, day 24, CED” value (Sprague-Dawley rats [1]; females, CES 10%) was 1.84 mg/kg bw. The “Percent distance in inner zone, day 24, CED-L” value (Sprague-Dawley rats [1]; females, CES 10%) was 0.53 mg/kg bw, the “Percent time in inner zone, day 24, CED” value (Sprague-Dawley rats [1]; females, CES 10%) was 0.71 mg/kg bw and the “Percent time in inner zone, day 24, CED-L” value (Sprague-Dawley rats [1]; females, CES 10%) was 0.23 mg/kg bw. The “Habituation, percentage of distance moved, CED” value (Sprague-Dawley rats [1]; [9]) was 1340 µg/g lipid, the “Habituation, time in inner zone, CED” value (Sprague-Dawley rats [1]; [9]) was 1130 µg/g lipid and the “Spontanous locomotor activity, CED-L” value (Sprague-Dawley rats [1]; [9]) was 525 ng/g lipid. The “Altered open field behavior, CED-L” value (Sprague-Dawley rats [1]; females, critical effect for risk characterization) was 0.525 µg/g lipid, the “Open field behavior, dose-response relations” value (Sprague-Dawley rats [1]; males) was “No significant dose-response relations” and the “CED, Large thyroid follicles (%)” value (Sprague-Dawley rats [2]; [5]) was 105 µg/g lipid. The “CED-L, Large thyroid follicles (%)” value (Sprague-Dawley rats [2]; [5]) was 52.7 µg/g lipid, the “CED, Large thyroid follicles (%)” value (Sprague-Dawley rats [2]; [7]) was 218 µg/g lipid and the “CED-L, Large thyroid follicles (%)” value (Sprague-Dawley rats [2]; [7]) was 110 µg/g lipid. For the same compound, the Emax (Sprague-Dawley rats [2]; F, model E4, controls vs high dose according to the fitted model, read-out: Maximum response, Large thyroid follicles (%)) was -70.9%, the Emax (Sprague-Dawley rats [2]; females, controls vs high dose, fitted model, read-out: Large thyroid follicles (%), Maximum response) was -71% and the “Hyperemia of inner zones of adrenal cortex, CEDL” value (Sprague-Dawley rats [2]; females) was 2526 mg/kg bw. For the same compound, the “Activation of adrenal zona fasciculata, difference in CED values between genders” value (Sprague-Dawley rats [2]; females more sensitive, semi-quantitative evaluation) was 297 fold, the “Large thyroid follicles (%), CED” value (Sprague-Dawley rats [2]; females, CES 5%) was 22.6 mg/kg bw and the “Large thyroid follicles (%), CED-L” value (Sprague-Dawley rats [2]; females, CES 5%) was 11.6 mg/kg bw. The “Large thyroid follicles (%), CED” value (Sprague-Dawley rats [2]; females, CES 10%) was 131 mg/kg bw, the “Large thyroid follicles (%), CED-L” value (Sprague-Dawley rats [2]; females, CES 10%) was 81.0 mg/kg bw and the “Area of large thyroid follicles, CED” value (Sprague-Dawley rats [2]; [9]) was 105 µg/g lipid. The “Thyroid follicle depletion in females, CED (Fig. 7C)” value (Sprague-Dawley rats [2]; females, legend says CES 5%) was 131, the “Thyroid follicle depletion in females, CED-L05 (Fig. 7C)” value (Sprague-Dawley rats [2]; females, legend says CES 5%) was 80.5 and the “Thyroid follicle depletion in females, CED-L95 (Fig. 7C)” value (Sprague-Dawley rats [2]; females, legend says CES 5%) was 213.3. The “Adrenal zona fasciculata hypertrophy, CED” value (Sprague-Dawley rats [2]; females) was 2.0 mg/kg bw, the “Pituitary frontal lobe vacuoles or extracellular deposits, incidence” value (Sprague-Dawley rats [2]; females) was 2/5 and the “Adrenal zona fasciculata hypertrophy, CED” value (Sprague-Dawley rats [2]; males) was 594 mg/kg bw. For the same compound, the “Pituitary frontal lobe vacuoles or extracellular deposits, incidence” value (Sprague-Dawley rats [2]; males) was 4/5, the “Specific [3H]SCH23390 binding to D1/D5 dopamine receptors in cerebrum vs controls” value ([3]; 1000 mg/kg bw) was “No significant differences” and the “Dopamine D1/D5 receptor binding” value ([3]; total dose 1000 mg/kg bw, group mean) was 1075 DPM1.

Reference: article PMC4138103 (PLoS ONE, 2014)
